In patent publication US12233060B2, “Inhibitors of Ataxia-Telangiectasia Mutated and Rad3-related protein kinase (ATR) for use in methods of treating cancer” (THE INSTITUTE OF CANCER RESEARCH: ROYAL CANCER HOSPITAL, priority 2016, dated 2025):

Key:
[1] = test system: TOV21G xenografts; test: In vivo efficacy, established TOV21G xenografts; set-up: species or system mice; details: 60 mg/kg, 4x weekly oral gavage, 28 days; p=0.014 ANOVA
[2] = test system: HCT116 ARID1A+/+ and ARID1A−/− cells; test: PARP cleavage western blot; type: cell-based, human; details: 24 hours exposure; camptothecin 1 uM positive control
Experimental: FIG. 3. In vivo ARID1A/ATR synthetic lethality. A. Schematic of VX-970 therapy experiment in mice bearing established HCT116 ARID1A^+/+ and ARID1A^−/− xenografts. Cells were inoculated subcutaneously into nude mice and tumors allowed to establish for 10 days. Mice were then randomized to treatment regimens of either VX-970 (60 mg/kg, 4× weekly by oral gavage) or vehicle. Mice were then treated for a subsequent 40 days. Tumor volume was monitored twice weekly. B. Relative tumor volume plot from (A) showing efficacy of VX-970 and selectivity for ARID1A^−/− xenografts* p=0.024, ANOVA. C. Schematic of tumor incidence experiment in mice with non-established HCT116 ARID1A^+/+ and ARID1A^−/− xenografts. […] Tumor volume was monitored twice weekly and overall tumour incidence was assessed 40 days later. […] PARP-1, cleaved PARP-1 (85 kDa fragment) and tubulin were detected by western blot. […] Caspase3/7 activity was assessed using Caspase-Glo and total cellular viability was estimated using CellTitre-Glo. Luminescence ratios for Caspase-Glo (i.e. apoptotic cells) and CellTitre-Glo (ie viable cells) was determined for each dose and normalized to DMSO treated samples. *Student's t-test, p<0.05. […]
FIG. 5. […] The percentage of cells in G2/M was measured by FACS following PI staining. […] A minimum of 50 anaphases were scored in 3 biological replicate experiments. *p=0.023, Student's t-test. […]

[3] = test system: HCT116 ARID1A+/+ and ARID1A−/− cells; test: Cell cycle analysis of synchronized cells (G2/M fraction, FACS); type: cell-based, human; details: double thymidine block, release into VX-970 (500 nM)
Experimental: FIG. 5. ATRi effect on cell cycle progression, chromosomal instability, DNA damage and apoptosis. A. Barchart illustrating G2/M fraction in HCT116 ARID1A^+/+ and ARID1A^−/− cells synchronized in G1/early S phase by double thymidine block and released into fresh media containing DMSO or VX-970 (500 nM). The percentage of cells in G2/M was measured by FACS following PI staining. […] Cells were stained with DAPI. A minimum of 50 anaphases were scored in 3 biological replicate experiments. *p=0.023, Student's t-test. C. Bar chart illustrating frequency of anaphase bridges in TOV21G cells exposed to VX-970 (0.5 uM) or DMSO for 8 hours prior to fixation. Experiment performed as for (B). p=0.006 Student's t-test. D. Mitotic spread images from HCT116 ARID1A^+/+ and ARID1A^−/− cells following exposure to either DMSO or VX-970 (1 uM). Scale bar represents 20 um. E. Bar chart illustrating extent of chromosomal abnormalities in HCT116 ARID1A^+/+ and ARID1A^−/− cells exposed to VX-970 (1 uM). *p<0.05, Student's t-test. […]
Cells were plated at a density of 2×10^5 cells per well of a six-well plate and incubated for 24 hours after which ATRi or 0.1% DMSO was added for the indicated period of time. […] Samples were analyzed on a BD LSR II flow cytometer using BD FACSDiva software (BD Biosciences). […]

CNCc1ccc(-c2cc(-c3nc(-c4ccc(S(=O)(=O)C(C)C)cc4)cnc3N)on2)cc1 [VX-970, 5-[4-(Isopropylsulfonyl)phenyl]-3-(3-{4-[(methylamino)methyl]phenyl}-1,2-oxazol-5-yl)-2-pyrazinamine]
growth of established TOV21G tumours vs vehicle [1]: significantly inhibited the growth
PARP-cleavage, ARID1A−/− vs ARID1A+/+ [2]: far higher levels of PARP-cleavage
G2/M delay in ARID1A−/− cells [3]: abrogated the G2/M delay
